This is an account of results in article PMC11207005 (Pharmaceuticals, 2024).

A short description of series [1]: Phase solubility study: solubility of pure ALB in distilled water. Conditions: thermodynamic from solid, 25 °C. Format: physicochemical. The protocol: (§1) Phase solubility tests were conducted in distilled water following the procedure outlined in the Higuchi and Connors technique. […] Samples were placed in the water bath (25 °C/2 days/50 rpm) to attain equilibrium. Samples of 3 mL were withdrawn and filtered through a 0.45 μm nylon membrane filter. The filtrate (1 mL) was diluted appropriately with methanol, stirred for one hour (200 rpm), and assayed at 340 nm. The concentrations used were 2, 4, 10, 15, and 20 mmol/L for both βCD and HPβCD.

Series [2] can be described thus: Phase solubility study of ALB with βCD (stability constant). Format: physicochemical. The following applies: distilled water, 25 °C. As for the experimental part:
as §1

Series [3] in a line: Phase solubility study of ALB with HPβCD (stability constant). Format: physicochemical. The following applies: distilled water, 25 °C. As for the experimental part:
as §1

Series [4] is described as follows: Dissolution test, USP apparatus type II. Format: physicochemical. The following applies: pH 6.8 phosphate buffer, 37 °C, 100 rpm, powder. The protocol:
In the following circumstances, the dissolution test was carried out on the prepared ALB capsules and the complex-containing ones. The dissolution medium was a USP type II (paddle type) and 900 mL of pH 6.8 phosphate buffer at 37 ± 1 °C with the rotation speed fixed at […]. At selected time points (10, 20, …, 80), 2 mL samples of dissolution medium were withdrawn and replaced with a fresh buffer. Times start from 0-time points for powder dissolution and end after 20 min (average time to dissolve the capsule shell).

Series [5] can be described thus: Oral pharmacokinetic (bioavailability) study in rats, non-compartmental analysis. Format: in vivo, Wistar rats. As for the experimental part: The Shimadzu SCL-10A VP system control (Kyoto, Japan) has a mass detector (LCMS2010A) from Shimadzu Kylimatu, Japan. The mobile phase comprised acetonitrile–deionized water–formic acid (70: 30: 0.1%, v/v). Rosuvastatin was utilized as an internal standard. The injection volume was 10 µL; the flow rate was […]; the autosampler temperature was 5 °C; the column temperature was 25 °C; and the column was ACE (C18; 4.6 × […]) with particle size of 5.0 µm.
The samples were prepared for injection into the instrument as follows: Samples (including known/unknown spiked plasma and samples) were obtained from the deep freezer, followed by a period of room-temperature thaw. Later, a plasma pipet was performed on the samples after they were shaken to form a mixture. A total of 270 µL of blank plasma per 300 µL of spiked plasma were pipetted into the labeled test tubes, and 30 µL of serial solutions into blank plasma were added. Then, 50 µL of rosuvastatin (IS) working solutions were added. Then, the samples were vortexed for roughly 10 s. A total of 700 µL of acetonitrile (precipitation solutions) were added and vortexed again for 2.0 min, then centrifugated at 4000 rpm for roughly five min at room temperature. After that, 200 µL from the supernatant was transferred to the HPLC vials inserts. Finally, the vials were capped and transferred into the autosampler racks.
The study protocol was validated and approved by the Institutional Review Board (IRB) of Applied Science University (ASU) (Decision no. 6/2021–2022). The preclinical investigation was conducted at the Animal House of ASU as a combined project. A total of 12 Wistar rats were prepared for this study and divided into two groups, with each group containing 6 rats. The average weight of the animals was 200 g ± 15 g, aged four weeks, and they were all males.
The animals for the experiment were prepared by depriving them of food (for about twelve hours) apart from full access to water, and they were identified by a sign mark on the tail. After the dosing of ALB, samples were retrieved from the rat’s tail. After, the tail was warmed for half a minute via a hot pad before every sampling period. […] The samples were kept in heparinized Eppendorf tubes, centrifugated to obtain the plasma, frozen at −25 °C, and kept until the time of analysis.
The plasma level–time profile of ALB was obtained using Microsoft Excel. Two profiles, F1 in G1 and F2 in G2, were plotted. […] ANOVA was applied to detect significant parameter differences using a […].

For series [6] the following is noted: cited from earlier work.
For series [7] the following is noted: cited from earlier work. This is another data set of the same source.
Where [8] appears, read: male, Wistar, rat, plasma, po, 15 mg/kg.

Each structure is given as a SMILES string.

Turning to `CCc1cc2c(cc1N1CCC(N3CCOCC3)CC1)C(C)(C)c1[nH]c3cc(C#N)ccc3c1C2=O` [ALB, Alectinib], the solubility (usually the dissolved amount per volume that the medium holds) at 2 days in series [1] is 2 µM. In series [1] (approximate), this molecule came in with a solubility at 2 days of roughly 1 µg/mL. The “Ks (stability constant)” value in series [2] was 500 M⁻¹. For the same molecule, the “Ks (stability constant)” value in series [3] amounted to 1836 M⁻¹. The “T30 (amount of ALB released in 30 min)” value in series [4] stood at 18%. For the same molecule, in series [5] (Wistar rats, F1 and F2, LLOQ 15 ng/mL), the “Plasma concentration of ALB at 72 h” value is recorded as “below the LLOQ”. In series [5] (setting [8]), the total exposure AUC(0-inf) (in general, total exposure, with the tail of the curve extrapolated) amounted to 7280 ± 306 ng·h/mL; the Cmax – broadly, the maximum level reached in the sampled fluid or tissue – was 240 ± 26.9 ng/mL; the Tmax (in general, the time at which the peak concentration occurs) was 7.33 ± 1.03 h. The AUC(0-t) in series [5] (male, Wistar, rat, plasma, po, 15 mg/kg, read-out: AUC0-48 (AUC-48)) stood at 5950 ± 265 ng·h/mL. In series [5] (male, Wistar, rat, plasma, po, 15 mg/kg, read-out: Kel (elimination rate constant) (converted)), the k el is 1.25e-05 s⁻¹. Moreover, the “log partition coefficient (log p)” value in series [6] is 5.2. Further, in series [7], the Oral bioavailability entry is recorded as “around 37%”.
